Experiments:
Experiment in all cases: cells
[1] = test system: EW-16; assay type: functional, cell-based, Homo sapiens; settings: Homo sapiens, EW-16;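 also: growth inhibition of human EW-16 cells, read out as cell viability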
Description: SANGER: Inhibition of human EW-16 cell growth in a cell viability assay.

[2] = test system: NCI-H1963; assay type: functional, cell-based, Homo sapiens; settings: Homo sapiens, NCI-H1963;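 also: cell growth inhibition of the human line, determined with a cell viability assay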
Description: SANGER: Inhibition of human NCI-H1963 cell growth in a cell viability assay.

[3] = test system: TE-10; assay type: functional, cell-based, Homo sapiens; settings: Homo sapiens, TE-10;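 also: growth inhibition of TE-10 cells, measured by a cell viability assay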
Description: SANGER: Inhibition of human TE-10 cell growth in a cell viability assay.

[4] = test system: RS4-11; assay type: functional, cell-based, Homo sapiens; settings: Homo sapiens, RS4-11;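 also: growth inhibition of RS4-11 cells, read out by a cell viability assay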
Description: SANGER: Inhibition of human RS4-11 cell growth in a cell viability assay.

[5] = test system: BB49-HNC; assay type: functional, cell-based, Homo sapiens; settings: Homo sapiens, BB49-HNC;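 also: cell viability assay read-out, reported as inhibition of BB49-HNC cell growth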
Description: SANGER: Inhibition of human BB49-HNC cell growth in a cell viability assay.

[6] = test system: NTERA-2-cl-D1; assay type: functional, cell-based, Homo sapiens; settings: Homo sapiens, NTERA-2-cl-D1;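 also: inhibition of cell growth, measured with a cell viability assay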
Description: SANGER: Inhibition of human NTERA-S-cl-D1 cell growth in a cell viability assay.

[7] = test system: DEL; assay type: functional, cell-based, Homo sapiens; settings: Homo sapiens, DEL;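 also: growth inhibition of the human DEL cell line, read out with a cell viability assay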
Description: SANGER: Inhibition of human DEL cell growth in a cell viability assay.

[8] = test system: ES7; assay type: functional, cell-based, Homo sapiens; settings: Homo sapiens, ES7;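 also: growth inhibition of cultured human ES7 cells, read out as cell viability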
Description: SANGER: Inhibition of human ES7 cell growth in a cell viability assay.

[9] = test system: IST-MES1; assay type: functional, cell-based, Homo sapiens; settings: Homo sapiens, IST-MES1;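 also: growth inhibition of IST-MES1 cells, measured with a cell viability assay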
Description: SANGER: Inhibition of human IST-MES1 cell growth in a cell viability assay.

[10] = test system: LU-134-A; assay type: functional, cell-based, Homo sapiens; settings: Homo sapiens, LU-134-A
Description: SANGER: Inhibition of human LU-134-A cell growth in a cell viability assay.

[11] = test system: RCC10RGB; assay type: functional, cell-based, Homo sapiens; settings: Homo sapiens, RCC10RGB;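 also: growth inhibition of human RCC10RGB cells, read out by a cell viability assay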
Description: SANGER: Inhibition of human RCC10RGB cell growth in a cell viability assay.

[12] = test system: KG-1; assay type: functional, cell-based, Homo sapiens; settings: Homo sapiens, KG-1;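 also: growth inhibition of KG-1 cells, read out by a cell viability assay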
Description: SANGER: Inhibition of human KG-1 cell growth in a cell viability assay.

[13] = test system: NB69; assay type: functional, cell-based, Homo sapiens; settings: Homo sapiens, NB69;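 also: growth inhibition of NB69 cells, determined by a cell viability assay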
Description: SANGER: Inhibition of human NB69 cell growth in a cell viability assay.

[14] = test system: K562; assay type: functional, cell-based, Homo sapiens; settings: Homo sapiens, K562
Description: SANGER: Inhibition of human K-562 cell growth in a cell viability assay.

[15] = test system: MZ2-MEL; assay type: functional, cell-based, Homo sapiens; settings: Homo sapiens, MZ2-MEL;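 also: growth inhibition of MZ2-MEL cells read out with a cell viability assay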
Description: SANGER: Inhibition of human MZ2-MEL cell growth in a cell viability assay.

[16] = test system: TGBC24TKB; assay type: functional, cell-based; settings: Homo sapiens;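 also: growth inhibition of human TGBC24TKB cells, read out with a cell viability assay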
Description: SANGER: Inhibition of human TGBC24TKB cell growth in a cell viability assay.

[17] = test system: P30-OHK; assay type: functional, cell-based, Homo sapiens; settings: Homo sapiens, P30-OHK;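 also: growth inhibition of the P30-OHK cell line, read out with a cell viability assay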
Description: SANGER: Inhibition of human P30-OHK cell growth in a cell viability assay.

[18] = test system: KGN; assay type: functional, cell-based, Homo sapiens; settings: Homo sapiens, KGN;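 also: growth inhibition of KGN cells, read out with a cell viability assay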
Description: SANGER: Inhibition of human KGN cell growth in a cell viability assay.

[19] = test system: DOHH-2; assay type: functional, cell-based, Homo sapiens; settings: Homo sapiens, DOHH-2;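 also: growth inhibition of human DOHH-2 cells, read out with a cell viability assay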
Description: SANGER: Inhibition of human DOHH-2 cell growth in a cell viability assay.

[20] = test system: ES4; assay type: functional, cell-based, Homo sapiens; settings: Homo sapiens, ES4;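 also: growth inhibition of human ES4 cells, read out by a cell viability assay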
Description: SANGER: Inhibition of human ES4 cell growth in a cell viability assay.

[21] = test system: COLO-829; assay type: functional, cell-based, Homo sapiens; settings: Homo sapiens, COLO-829
Description: SANGER: Inhibition of human COLO-829 cell growth in a cell viability assay.

[22] = test system: ES3; assay type: functional, cell-based, Homo sapiens; settings: Homo sapiens, ES3;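 also: growth inhibition of ES3 cells, read out with a cell viability assay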
Description: SANGER: Inhibition of human ES3 cell growth in a cell viability assay.

[23] = test system: KE-37; assay type: functional, cell-based, Homo sapiens; settings: Homo sapiens, KE-37;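 also: growth inhibition of KE-37 cells, read out with a cell viability assay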
Description: SANGER: Inhibition of human KE-37 cell growth in a cell viability assay.

[24] = test system: LAN-6; assay type: functional, cell-based, Homo sapiens; settings: Homo sapiens, LAN-6;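 also: growth inhibition of LAN-6 cells, determined with a cell viability assay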
Description: SANGER: Inhibition of human LAN-6 cell growth in a cell viability assay.

[25] = test system: VA-ES-BJ; assay type: functional, cell-based, Homo sapiens; settings: Homo sapiens, VA-ES-BJ;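 also: growth inhibition of the VA-ES-BJ cell line, read out by a cell viability assay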
Description: SANGER: Inhibition of human VA-ES-BJ cell growth in a cell viability assay.

[26] = test system: SK-MEL-2; assay type: functional, cell-based, Homo sapiens; settings: Homo sapiens, SK-MEL-2;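 also: growth inhibition of human SK-MEL-2 cells measured with a cell viability assay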
Description: SANGER: Inhibition of human SK-MEL-2 cell growth in a cell viability assay.

[27] = test system: DB; assay type: functional, cell-based, Homo sapiens; settings: Homo sapiens, DB
Description: SANGER: Inhibition of human DB cell growth in a cell viability assay.

[28] = test system: HEL; assay type: functional, cell-based, Homo sapiens; settings: Homo sapiens, HEL;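 also: growth inhibition of HEL cells, read out with a cell viability assay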
Description: SANGER: Inhibition of human HEL cell growth in a cell viability assay.

[29] = test system: LOX IMVI; assay type: functional, cell-based, Homo sapiens; settings: Homo sapiens, LOX IMVI
Description: SANGER: Inhibition of human LOXIMVI cell growth in a cell viability assay.

[30] = test system: LAMA-84; assay type: functional, cell-based, Homo sapiens; settings: Homo sapiens, LAMA-84;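 also: growth inhibition of LAMA-84 cells, read out with a cell viability assay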
Description: SANGER: Inhibition of human LAMA-84 cell growth in a cell viability assay.

[31] = test system: TE-8; assay type: functional, cell-based, Homo sapiens; settings: Homo sapiens, TE-8;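 also: growth inhibition of TE-8 cells, measured with a cell viability readout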
Description: SANGER: Inhibition of human TE-8 cell growth in a cell viability assay.

[32] = test system: LB831-BLC; assay type: functional, cell-based, Homo sapiens; settings: Homo sapiens, LB831-BLC;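 also: growth inhibition of LB831-BLC cells, read out with a cell viability assay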
Description: SANGER: Inhibition of human LB831-BLC cell growth in a cell viability assay.

[33] = test system: BB65-RCC; assay type: functional, cell-based, Homo sapiens; settings: Homo sapiens, BB65-RCC;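 also: growth inhibition of the cell line, measured with a cell viability assay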
Description: SANGER: Inhibition of human BB65-RCC cell growth in a cell viability assay.

[34] = test system: SHP77; assay type: functional, cell-based, Homo sapiens, SHP-77; settings: Homo sapiens, SHP77;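 also: growth inhibition of human SHP-77 cells measured by a cell viability assay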
Description: SANGER: Inhibition of human SHP-77 cell growth in a cell viability assay.

[35] = test system: KY821; assay type: functional, cell-based, Homo sapiens; settings: Homo sapiens, KY821;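 also: growth inhibition of human KY821 cells, read out by a cell viability assay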
Description: SANGER: Inhibition of human KY821 cell growth in a cell viability assay.

[36] = test system: MSTO-211H; assay type: functional, cell-based, Homo sapiens; settings: Homo sapiens, MSTO-211H
Description: SANGER: Inhibition of human MSTO-211H cell growth in a cell viability assay.

[37] = test system: Mo; assay type: functional, cell-based, Homo sapiens; settings: Homo sapiens, Mo
Description: SANGER: Inhibition of human Mo-T cell growth in a cell viability assay.

[38] = test system: DMS-114; assay type: functional, cell-based, Homo sapiens; settings: Homo sapiens, DMS-114
[39] = test system: CGTH-W-1; assay type: functional, cell-based, Homo sapiens; settings: Homo sapiens, CGTH-W-1;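 also: growth inhibition of human CGTH-W-1 cells measured by cell viability assay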
Description: SANGER: Inhibition of human CGTH-W-1 cell growth in a cell viability assay.

[40] = test system: KM12; assay type: functional, cell-based, Homo sapiens; settings: Homo sapiens, KM12;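 also: KM12 cell growth inhibition, read out with a cell viability assay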
Description: SANGER: Inhibition of human KM12 cell growth in a cell viability assay.

[41] = test system: LU-139; assay type: functional, cell-based, Homo sapiens; settings: Homo sapiens, LU-139
Description: SANGER: Inhibition of human LU-139 cell growth in a cell viability assay.

[42] = test system: NOS-1; assay type: functional, cell-based, Homo sapiens; settings: Homo sapiens, NOS-1;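 also: growth inhibition of the human NOS-1 cell line, read out with a cell viability assay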
Description: SANGER: Inhibition of human NOS-1 cell growth in a cell viability assay.

[43] = test system: LC-2-ad; assay type: functional, cell-based, Homo sapiens; settings: Homo sapiens, LC-2-ad;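 also: growth inhibition of human LC-2-ad cells, read out with a cell viability assay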
Description: SANGER: Inhibition of human LC-2-ad cell growth in a cell viability assay.

[44] = test system: C8166; assay type: functional, cell-based, Homo sapiens; settings: Homo sapiens, C8166;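 also: growth inhibition of human C8166 cells measured by a cell viability assay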
Description: SANGER: Inhibition of human C8166 cell growth in a cell viability assay.

[45] = test system: HCC2218; assay type: functional, cell-based, Homo sapiens; settings: Homo sapiens, HCC2218;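 also: cell viability assay read-out, with IC50 given as the concentration that inhibits growth of the cell line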
Description: SANGER: Inhibition of human HCC2218 cell growth in a cell viability assay.

[46] = test system: MEG-01; assay type: functional, cell-based, Homo sapiens; settings: Homo sapiens, MEG-01;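 also: growth inhibition of MEG-01 cells, read out by a cell viability assay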
Description: SANGER: Inhibition of human MEG-01 cell growth in a cell viability assay.

[47] = test system: JAR; assay type: functional, cell-based, Homo sapiens; settings: Homo sapiens, JAR;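 also: growth inhibition of human JAR cells determined with a cell viability assay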
Description: SANGER: Inhibition of human JAR cell growth in a cell viability assay.

[48] = test system: HH; assay type: functional, cell-based, Homo sapiens; settings: Homo sapiens, HH
Description: SANGER: Inhibition of human HH cell growth in a cell viability assay.

[49] = test system: K5; assay type: functional, cell-based, Homo sapiens; settings: Homo sapiens, K5
Description: SANGER: Inhibition of human K5 cell growth in a cell viability assay.

Structure (SMILES): NC(=O)c1cccc(-c2cc(Nc3ccc(OC(F)(F)F)cc3)ncn2)c1
- IC50 [1]: > 1280 nM
- IC50 [2]: > 1280 nM
- IC50 [3]: > 1280 nM
- IC50 [4]: > 1280 nM
- IC50 [5]: > 1280 nM
- IC50 [6]: > 1280 nM
- IC50 [7]: > 1280 nM
- IC50 [8]: > 1280 nM
- IC50 [9]: > 1280 nM
- IC50 [10]: > 1280 nM
- IC50 [11]: > 1280 nM
- IC50 [12]: > 1280 nM
- IC50 [13]: > 1280 nM
- IC50 [14]: 361 nM
- IC50 [15]: > 1280 nM
- IC50 [16]: > 1280 nM
- IC50 [17]: > 1280 nM
- IC50 [18]: > 1280 nM
- IC50 [19]: > 1280 nM
- IC50 [20]: > 1280 nM
- IC50 [21]: > 1280 nM
- IC50 [22]: > 1280 nM
- IC50 [23]: > 1280 nM
- IC50 [24]: > 1280 nM
- IC50 [25]: > 1280 nM
- IC50 [26]: > 1280 nM
- IC50 [27]: > 1280 nM
- IC50 [28]: > 1280 nM
- IC50 [29]: > 1280 nM
- IC50 [30]: 163 nM
- IC50 [31]: > 1280 nM
- IC50 [32]: > 1280 nM
- IC50 [33]: > 1280 nM
- IC50 [34]: > 1280 nM
- IC50 [35]: > 1280 nM
- IC50 [36]: > 1280 nM
- IC50 [37]: > 1280 nM
- IC50 [38]: > 1280 nM
- IC50 [39]: > 1280 nM
- IC50 [40]: > 1280 nM
- IC50 [41]: > 1280 nM
- IC50 [42]: 571 nM
- IC50 [43]: > 1280 nM
- IC50 [44]: > 1280 nM
- IC50 [45]: > 1280 nM
- IC50 [46]: 503 nM
- IC50 [47]: > 1280 nM
- IC50 [48]: > 1280 nM
- IC50 [49]: > 1280 nM

Structure (SMILES): COc1cc(N2CCC(N3CCN(C)CC3)CC2)ccc1Nc1ncc(Cl)c(Nc2ccccc2S(=O)(=O)C(C)C)n1 [TAE-684]
- IC50 [1]: 106 nM
- IC50 [2]: > 2000 nM
- IC50 [3]: 715 nM
- IC50 [4]: > 2000 nM
- IC50 [5]: > 2000 nM
- IC50 [6]: 334 nM
- IC50 [7]: < 7.81 nM
- IC50 [8]: > 2000 nM
- IC50 [9]: 988 nM
- IC50 [10]: 839 nM
- IC50 [11]: > 2000 nM
- IC50 [12]: 396 nM
- IC50 [13]: 318 nM
- IC50 [14]: > 2000 nM
- IC50 [15]: > 2000 nM
- IC50 [16]: 302 nM
- IC50 [17]: > 2000 nM
- IC50 [18]: 662 nM
- IC50 [19]: 312 nM
- IC50 [20]: 491 nM
- IC50 [21]: > 2000 nM
- IC50 [22]: > 2000 nM
- IC50 [23]: > 2000 nM
- IC50 [24]: 174 nM
- IC50 [25]: > 2000 nM
- IC50 [26]: > 2000 nM
- IC50 [27]: > 2000 nM
- IC50 [28]: 1150 nM
- IC50 [29]: > 2000 nM
- IC50 [30]: > 2000 nM
- IC50 [31]: 429 nM
- IC50 [32]: 550 nM
- IC50 [33]: > 2000 nM
- IC50 [34]: > 2000 nM
- IC50 [35]: > 2000 nM
- IC50 [36]: > 2000 nM
- IC50 [37]: > 2000 nM
- IC50 [38]: > 2000 nM
- IC50 [39]: > 2000 nM
- IC50 [40]: > 2000 nM
- IC50 [41]: > 2000 nM
- IC50 [42]: 103 nM
- IC50 [43]: 197 nM
- IC50 [44]: > 2000 nM
- IC50 [45]: > 2000 nM
- IC50 [46]: > 2000 nM
- IC50 [47]: > 2000 nM
- IC50 [48]: > 2000 nM
- IC50 [49]: 1060 nM

Structure (SMILES): Cc1cc(N2CCOCC2)cc2[nH]c(-c3c(NC[C@@H](O)c4cccc(Cl)c4)cc[nH]c3=O)nc12
- IC50 [1]: 206 nM
- IC50 [2]: > 5120 nM
- IC50 [3]: 1200 nM
- IC50 [4]: 1800 nM
- IC50 [5]: > 5120 nM
- IC50 [6]: 257 nM
- IC50 [7]: 2700 nM
- IC50 [8]: > 5120 nM
- IC50 [9]: 1120 nM
- IC50 [10]: 1600 nM
- IC50 [11]: 3570 nM
- IC50 [12]: > 5120 nM
- IC50 [13]: 293 nM
- IC50 [14]: > 5120 nM
- IC50 [15]: 4800 nM
- IC50 [16]: 275 nM
- IC50 [17]: > 5120 nM
- IC50 [18]: 1090 nM
- IC50 [19]: > 5120 nM
- IC50 [20]: 622 nM
- IC50 [21]: > 5120 nM
- IC50 [22]: > 5120 nM
- IC50 [23]: > 5120 nM
- IC50 [24]: 172 nM
- IC50 [25]: > 5120 nM
- IC50 [26]: > 5120 nM
- IC50 [27]: > 5120 nM
- IC50 [28]: 1900 nM
- IC50 [29]: > 5120 nM
- IC50 [30]: > 5120 nM
- IC50 [31]: 506 nM
- IC50 [32]: 1500 nM
- IC50 [33]: > 5120 nM
- IC50 [34]: > 5120 nM
- IC50 [35]: > 5120 nM
- IC50 [36]: > 5120 nM
- IC50 [37]: > 5120 nM
- IC50 [38]: > 5120 nM
- IC50 [39]: > 5120 nM
- IC50 [40]: 28.4 nM
- IC50 [41]: > 5120 nM
- IC50 [42]: 74.4 nM
- IC50 [43]: 117 nM
- IC50 [44]: > 5120 nM
- IC50 [45]: > 5120 nM
- IC50 [46]: 4210 nM
- IC50 [47]: > 5120 nM
- IC50 [48]: > 5120 nM
- IC50 [49]: 1780 nM
